According to US20230250131A1, “HYDROXYSTEROID COMPOUNDS” (Epirium Bio Inc., priority 2022, published 2023):
Where “and” joins values, the source holds several entries; their conditions need not be identical. Equal entries are not always repeated. Where two headings read alike, the source gives them in different places.

Tested on: PGC-1α
Assay: PGC-1α assay in differentiated C2C12 cells (ELISA-type antibody detection, absorbance at 450 nm)
Assay type: cell-based
Details: each compound tested at 0.01 nM, DMSO control as 100%; for activity at 10 pM: Mus musculus, C2C12, C2C12 myotubes
Method: The compounds of Table 2 were synthesized and tested in a PGC-1α assay.
Culture conditions: DMEM containing 25 mM glucose with 10% FBS supplementation; grown at 37° C. and 5% CO2.
Assay Conditions: C2C12 cells were cultured in DMEM supplemented in 10% FBS up to 80% confluence. The cells were further trypsinized and seeded into a 96 well plate at a density of 5000 cells/well (well volume—100 μL) (Day 0). Following attachment, the cells were allowed to reach 80-90% confluence in the plate (typically 48 hours post seeding) and further differentiated using DMEM+2% Horse Serum (200 μL/well). The media was changed every day or at least every alternate day for 5 days to allow myoblasts to differentiate into myotubes. On day 7 (post seeding), the cells were treated with standards and test compounds for PGC-1α assay.
PGC-1α assay: For the detection of PGC-1α, the cells were incubated with […] primary antibody (Merck, WH10010891M3) in PBS-T containing 5% BSA at 4° C. overnight. The cells were then washed three times with PBS-T for 5 minutes and incubated with 1:1000 dilution secondary antibody (Anti-rabbit IgG, HRP-linked Antibody, Cell Signaling) in PBS-T with […] for 1 hour at RT. Cells were washed three times with PBS-T for 5 minutes The cells were incubated with 100 μl TMB substrate solution for 30 minutes and the reaction was stopped with 100 μl of 2N H2SO4. Then the plate was read at 450 nm using ELISA plate reader and absorbance recorded. […] was calculated using DMSO control as 100%. (For plate optical density calculations, a background correction was taken at 540 nm). Each compound was tested at a concentration of 0.01 nM.

[1] = average over experiments, read-out: Single point PGC1-Alpha Assay: Average Activity (%)
[2] = individual experiments (Exp. 1-3), read-out: Single point PGC1-Alpha Assay: Activity (%)

Row | Compound | activity at 10 pM [1] | activity at 10 pM [2] | Single point PGC1-Alpha Assay: Activity (%) (C2C12 myotubes, individual experiments (Exp. 1-3), 10 pM)
1 | CCN1C(=O)CC[C@@]2(C)C1=CCC1C2[C@@H](O)C[C@@]2(C)C1CC[C@@H]2C(C)=O (some centres unmarked) | 116% | 116% | 
2 | CCN1C(=O)CC[C@@]2(C)C1=CCC1C2[C@@H](O)C[C@@]2(C)C1CC[C@@H]2C(C)O (some centres unmarked) | 94% | 94% | 
3 | CCCN1C(=O)CC[C@@]2(C)C1=CCC1C2[C@@H](O)C[C@@]2(C)C1CC[C@@H]2C(C)=O (some centres unmarked) | 109% | 109% | 
4 | CCN1C(=O)CC[C@@]2(C)C1=CCC1C3CCC(C4(C)OCCO4)[C@@]3(C)C[C@](C)(O)C12 (some centres unmarked) | 119% | 119% | 
5 | CCN1C(=O)CC[C@@]2(C)C1=CCC1C2[C@@](C)(O)C[C@@]2(C)C1CC[C@@H]2C(C)=O (some centres unmarked) | 118% | 118% | 
6 | CCN1C(=O)CC[C@@]2(C)C1=CCC1C2[C@@](C)(O)C[C@@]2(C)C1CC[C@@H]2C(C)(C)O (some centres unmarked) | 126% | 126% | 
7 | [2H][C@]1(O)C[C@@]2(C)C(CC[C@@H]2C(C)=O)C2CC=C3N(CC)C(=O)CC[C@]3(C)C21 (some centres unmarked) | 127% |  | 137% and 112% and 131%
